The results in this text go back to patent US9809574B2, “Isoindoline or isoquinoline compounds, a process for their preparation and pharmaceutical compositions containing them” (LES LABORATOIRES SERVIER, priority 2013, dated 2017).

Experiment [1] deals with Bcl-2 protein (histag-Bcl-2, UniProtKB P10415) (Homo sapiens (Human), UniProt P10415). Kind of experiment: Inhibition of Bcl-2 by the fluorescence polarisation technique. It counts as binding. The following applies: fluorescence polarisation test; incubation for 2 hours; read-out: IC50 (nM) Bcl-2 FP. An excerpt: For partial inhibitors, the percentage fluorescence polarisation inhibition for a given concentration of the test compound is indicated.

In experiment [2] the test system is RS4; 11 leukaemia cell line. Kind of experiment: In vitro cytotoxicity, Microculture Tetrazolium Assay (MTT). It counts as cell-based. The following applies: 11 cells exposed for 48 hours. The procedure:
The cytotoxicity studies were carried out on the RS4; 11 leukaemia cell line and on H146 small Cell Lung Carcinoma cell line. The cells are distributed onto microplates and exposed to the test compounds for 48 hours. The cell viability is then quantified by a colorimetric assay, the Microculture Tetrazolium Assay (Cancer Res., 1987, 47, 939-942).

Bcl-2 protein, sequence (P10415 whole entry): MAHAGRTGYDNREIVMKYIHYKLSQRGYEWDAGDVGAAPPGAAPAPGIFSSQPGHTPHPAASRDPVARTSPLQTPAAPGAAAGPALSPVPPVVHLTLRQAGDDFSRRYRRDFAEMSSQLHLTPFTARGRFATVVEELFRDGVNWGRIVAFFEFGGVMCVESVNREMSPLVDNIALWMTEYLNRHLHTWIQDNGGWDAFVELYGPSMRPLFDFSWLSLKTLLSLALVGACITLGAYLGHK

As for `Cc1c(C(=O)N(C)c2ccc(O)cc2)cc(-c2cc3c(cc2C(=O)N2Cc4ccccc4C[C@H]2CCN2CCOCC2)CN(C(=O)Oc2ccccc2)CC3)n1C` [Example 216, Phenyl 6-{4-[(4-hydroxyphenyl)(methyl)carbamoyl]-1,5-dimethyl-1H-pyrrol-2-yl}-7-[(3S)-3-[2-(morpholin-4-yl)ethyl]-1,2,3,4-tetrahydroisoquinoline-2-carbonyl]-1,2,3,4-tetrahydroisoquinoline-2-carboxylate], the figures for the IC50 in experiment [1] and in experiment [2] (Homo sapiens) were 2.4 nM and 2.9 nM, respectively.
The matching figures for `CCCCN(C(=O)c1cc(-c2cc3c(cc2C(=O)N2Cc4ccccc4C[C@H]2CN2CCOCC2)CN(C(=O)Cc2ccccc2)CC3)n(C)c1C)c1ccc(O)cc1` [Example 232, N-Butyl-N-(4-hydroxyphenyl)-1,2-dimethyl-5-{7-[(3S)-3-(morpholin-4-ylmethyl)-1,2,3,4-tetrahydroisoquinoline-2-carbonyl]-2-(2-phenylacetyl)-1,2,3,4-tetrahydroisoquinolin-6-yl}-1H-pyrrole-3-carboxamide]: 2.9 nM and 11 nM.
Take `Cc1c(C(=O)N(C)c2ccc(O)cc2)cc(-c2cc3c(cc2C(=O)N2Cc4ccccc4C[C@H]2CN2CCOCC2)CN(C(=O)Nc2ccccc2)CC3)n1C` [Example 245, 6-{4-[(4-Hydroxyphenyl)(methyl)carbamoyl]-1,5-dimethyl-1H-pyrrol-2-yl}-7-[(3S)-3-(morpholin-4-ylmethyl)-1,2,3,4-tetrahydroisoquinoline-2-carbonyl]-N-phenyl-1,2,3,4-tetrahydroisoquinoline-2-carboxamide]: the IC50 in experiment [1] was 4.2 nM; in experiment [2] (Homo sapiens), 92 nM.
In the case of `Cc1c(C(=O)N(C)c2ccc(O)cc2)cc(-c2cc3c(cc2C(=O)N2Cc4ccccc4C[C@H]2C)CN(C(=O)Nc2ccccc2)CC3)n1C` [Example 253, 6-{4-[(4-Hydroxyphenyl)(methyl)carbamoyl]-1,5-dimethyl-1H-pyrrol-2-yl}-7-[(3R)-3-methyl-1,2,3,4-tetrahydroisoquinoline-2-carbonyl]-N-phenyl-1,2,3,4-tetrahydroisoquinoline-2-carboxamide], the values for the IC50 in experiment [1] and in experiment [2] (Homo sapiens) were 5.2 nM and 22 nM, respectively.
In the case of `Cc1c(C(=O)N(C)c2ccc(O)cc2)cc(-c2cc3c(cc2C(=O)N2Cc4ccccc4C[C@H]2C)CN(C(=O)Oc2ccccc2OCCN(C)C)CC3)n1C` [Example 392, 2-[2-(Dimethylamino)ethoxy]phenyl 6-{4-[(4-hydroxyphenyl) (methyl)carbamoyl]-1,5-dimethyl-1H-pyrrol-2-yl}-7-[(3R)-3-methyl-1,2,3,4-tetrahydroisoquinoline-2-carbonyl]-1,2,3,4-tetrahydroisoquinoline-2-carboxylate], the IC50 in experiment [1] stood at 2 nM; in experiment [2] (Homo sapiens), 14 nM.
Consider `Cc1c(C(=O)N(C)c2ccc(O)cc2)cc(-c2cc3c(cc2C(=O)N2Cc4ccccc4C[C@H]2C)CN(C(=O)Oc2cccc(OCCN(C)C)c2)CC3)n1C` [Example 434, 3-[2-(Dimethylamino)ethoxy]phenyl 6-{4-[(4-hydroxyphenyl)(methyl)carbamoyl]-1,5-dimethyl-1H-pyrrol-2-yl}-7-[(3R)-3-methyl-1,2,3,4-tetrahydroisoquinoline-2-carbonyl]-1,2,3,4-tetrahydrisoquinoline-2-carboxylate], for which the IC50 in experiment [1] stood at 2.9 nM; in experiment [2] it was 1.6 nM.
For the compound `Cc1c(C(=O)N(C)c2ccccc2)cc(-c2cc3c(cc2C(=O)N2Cc4ccccc4C[C@H]2C)CN(C(=O)Oc2cccc(N(C)CCN(C)C)c2)CC3)n1C` [Example 446, 3-{[2-(Dimethylamino)ethyl](methyl)amino}phenyl 6-{1,5-dimethyl-4-[methyl(phenyl)carbamoyl]-1H-pyrrol-2-yl}-7-[(3R)-3-methyl-1,2,3,4-tetrahydroisoquinoline-2-carbonyl]-1,2,3,4-tetrahydroisoquinoline-2-carboxylate], the figures for the IC50 in experiment [1] and in experiment [2] (Homo sapiens) were 4.3 nM and 14 nM, respectively.
In the case of `Cc1c(C(=O)N(C)c2ccccc2)cc(-c2cc3c(cc2C(=O)N2Cc4ccccc4C[C@H]2C)CN(C(=O)Oc2cccc(OCCN(C)C)c2)CC3)n1C` [Example 448, 3-[2-(Dimethylamino)ethoxy]phenyl 6-{1,5-dimethyl-4-[methyl(phenyl)carbamoyl]-1H-pyrrol-2-yl}-7-[(3R)-3-methyl-1,2,3,4-tetrahydroisoquinoline-2-carbonyl]-1,2,3,4-tetrahydroisoquinoline-2-carboxylate], the values for the IC50 in experiment [1] and in experiment [2] (Homo sapiens) were 4 nM and 8.2 nM, respectively.
As for `Cc1c(C(=O)N(C)c2ccc(O)cc2)cc(-c2cc3c(cc2C(=O)N2Cc4ccccc4C[C@H]2C)CN(C(=O)Oc2ccc(N(C)CCN(C)C)cc2)CC3)n1C` [Example 474, 4-{[2-(Dimethylamino)ethyl](methyl)amino}phenyl 6-{4-[(4-hydroxyphenyl)(methyl)carbamoyl]-1,5-dimethyl-1H-pyrrol-2-yl}-7-[(3R)-3-methyl-1,2,3,4-tetrahydroisoquinoline-2-carbonyl]-1,2,3,4-tetrahydroisoquinoline-2-carboxylate], the IC50 came out at 4.5 nM in experiment [1] and 2.6 nM in experiment [2] (Homo sapiens).
As for `Cc1c(C(=O)N(C)c2ccccc2)cc(-c2cc3c(cc2C(=O)N2Cc4ccccc4C[C@H]2C)CN(C(=O)Oc2ccc(N(C)CCN(C)C)cc2)CC3)n1C` [Example 488, 4-{[2-(Dimethylamino)ethyl](methyl)amino}phenyl 6-{1,5-dimethyl-4-[methyl(phenyl)carbamoyl]-1H-pyrrol-2-yl}-7-[(3R)-3-methyl-1,2,3,4-tetrahydroisoquinoline-2-carbonyl]-1,2,3,4-tetrahydroisoquinoline-2-carboxylate], the IC50 in experiment [1] worked out at 5.3 nM; in experiment [2] (Homo sapiens), 13 nM.
The matching figures for `Cc1c(C(=O)N(C)c2ccccc2)cc(-c2cc3c(cc2C(=O)N2Cc4ccccc4C[C@H]2C)CN(C(=O)Oc2ccc(NCCN(C)C)cc2)CC3)n1C` [Example 489, 4-{[2-(Dimethylamino)ethyl]amino}phenyl 6-{1,5-dimethyl-4-[methyl(phenyl)carbamoyl]-1H-pyrrol-2-yl}-7-[(3R)-3-methyl-1,2,3,4-tetrahydroisoquinoline-2-carbonyl]-1,2,3,4-tetrahydroisoquinoline-2-carboxylate]: 3.2 nM and 68 nM.
`Cc1c(C(=O)N(C)c2ccc(O)cc2)cc(-c2cc3c(cc2C(=O)N2Cc4ccccc4C[C@H]2CN2CCOCC2)CN(C(=O)Oc2cccc(C#N)c2)CC3)n1C` [Example 560, 3-Cyanophenyl 6-{4-[(4-hydroxyphenyl)(methyl)carbamoyl]-1,5-dimethyl-1H-pyrrol-2-yl}-7-[(3S)-3-(morpholin-4-ylmethyl)-1,2,3,4-tetrahydroisoquinoline-2-carbonyl]-1,2,3,4-tetrahydroisoquinoline-2-carboxylate]: the results for the IC50 in experiment [1] and in experiment [2] (Homo sapiens) were 8.8 nM and 70 nM, respectively.
As to `C#Cc1ccc(OC(=O)N2CCc3cc(-c4cc(C(=O)N(C)c5ccc(O)cc5)c(C)n4C)c(C(=O)N4Cc5ccccc5C[C@H]4CN4CCOCC4)cc3C2)cc1` [Example 564, 4-Ethynylphenyl 6-{4-[(4-hydroxyphenyl)(methyl)carbamoyl]-1,5-dimethyl-1H-pyrrol-2-yl}-7-[(3S)-3-(morpholin-4-ylmethyl)-1,2,3,4-tetrahydroisoquinoline-2-carbonyl]-1,2,3,4-tetrahydroisoquinoline-2-carboxylate], the IC50 in experiment [1] came out at 4.5 nM; in experiment [2] (Homo sapiens) it was 3.3 nM.
In the case of `Cc1c(C(=O)N(C)c2ccc(O)cc2)cc(-c2cc3c(cc2C(=O)N2Cc4ccccc4C[C@H]2CN2CCOCC2)CN(C(=O)Oc2ccc(Cl)c(Cl)c2)CC3)n1C` [Example 573, 3,4-Dichlorophenyl 6-{4-[(4-hydroxyphenyl)(methyl)carbamoyl]-1,5-dimethyl-1H-pyrrol-2-yl}-7-[(3S)-3-(morpholin-4-ylmethyl)-1,2,3,4-tetrahydroisoquinoline-2-carbonyl]-1,2,3,4-tetrahydroisoquinoline-2-carboxylate], the results for the IC50 in experiment [1] and in experiment [2] (Homo sapiens) were 18 nM and 43 nM, respectively.
For the compound `Cc1c(C(=O)N(C)c2ccc(O)cc2)cc(-c2cc3c(cc2C(=O)N2Cc4ccccc4C[C@H]2CN2CCOCC2)CN(C(=O)Oc2ccc4ccccc4c2)CC3)n1C` [Example 574, Naphthalen-2-yl 6-{4-[(4-hydroxyphenyl)(methyl)carbamoyl]-1,5-dimethyl-1H-pyrrol-2-yl}-7-[(3S)-3-(morpholin-4-ylmethyl)-1,2,3,4-tetrahydroisoquinoline-2-carbonyl]-1,2,3,4-tetrahydroisoquinoline-2-carboxylate], the IC50 was 8.8 nM in experiment [1] and 11 nM in experiment [2] (Homo sapiens).
For `Cc1c(C(=O)N(C)c2ccc(O)cc2)cc(-c2cc3c(cc2C(=O)N2Cc4ccccc4C[C@H]2CN2CCOCC2)CN(C(=O)Oc2ccc4cc[nH]c4c2)CC3)n1C` [Example 575, 1H-Indol-6-yl 6-{4-[(4-hydroxyphenyl)(methyl)carbamoyl]-1,5-dimethyl-1H-pyrrol-2-yl}-7-[(3S)-3-(morpholin-4-ylmethyl)-1,2,3,4-tetrahydroisoquinoline-2-carbonyl]-1,2,3,4-tetrahydroisoquinoline-2-carboxylate], the values for the 50% inhibitory concentration (IC50) in experiment [1] and in experiment [2] (Homo sapiens) were 6.3 nM and 12 nM, respectively.
On to `Cc1c(C(=O)N(C)c2ccc(O)cc2)cc(-c2cc3c(cc2C(=O)N2Cc4ccccc4C[C@H]2CN2CCOCC2)CN(C(=O)Oc2ccc4[nH]ccc4c2)CC3)n1C` [Example 577, 1H-Indol-5-yl 6-{4-[(4-hydroxyphenyl)(methyl)carbamoyl]-1,5-dimethyl-1H-pyrrol-2-yl}-7-[(3S)-3-(morpholin-4-ylmethyl)-1,2,3,4-tetrahydroisoquinoline-2-carbonyl]-1,2,3,4-tetrahydroisoquinoline-2-carboxylate], for which the results for the half-inhibitory concentration (IC50) in experiment [1] and in experiment [2] (Homo sapiens) were 5.9 nM and 4.7 nM, respectively.
